# Measurements published in US20110039885A1, “METHODS FOR INCREASING ENDOTHELIAL PROGENITOR CELLS” (FibroGen, Inc., priority 2007, published 2011).
# Experiments:
# Assay type in all cases: in vivo, mouse
# [1] = system: endothelial progenitor cells (EPCs), KDR+/CD34+ cells, in bone marrow; assay: Bone marrow EPC levels by FACS after oral dosing in mice; conditions: for Percent Bone Marrow EPCs: tibia bone marrow 6 h after final dose; for Percent Bone Marrow EPCs Fold Increase Over Control: vs vehicle control
# Protocol: (§1) To examine the effect of compounds and methods of the present invention on endothelial progenitor cell (EPC) mobilization and EPC levels, the following studies were performed. Male Swiss-Webster mice were administered various compounds of the present invention via oral gavage using a ball-tipped gavage needle. Animals treated by oral gavage received a 10 ml/kg volume of either 0.5% carboxymethyl cellulose (CMC) with 0.1% Polysorbate 80 (vehicle control) or various doses (10-100 mg/kg) of a compound of the present invention in 0.5% CMC with 0.1% Polysorbate 80. Animals were dosed once daily for 3 or 4 days. Six hours after the final dosing, 200 μl blood samples were collected for detection of EPCs by FACS analysis as previously described. (Vasa et al. (2001) Circ Res 89:e1-e7.) Briefly, mononuclear cells were isolated from whole blood samples by erythrocyte depletion using red blood cell lysis buffer (eBioscience) according to the manufacturer's instructions. The remaining cells were incubated for one hour with monoclonal antibodies directed against mouse CD34 and mouse KDR, cell surface markers for EPCs (BD Pharmingen). Following incubation with the anti-CD34 and anti-KDR monoclonal antibodies, the samples were washed three times with sort buffer (PBS, 1% fetal bovine serum) and resuspended in sort buffer containing 50 μg/ml of propidium iodide. Samples were then analyzed for the presence and quantitation of EPCs by flow cytometry (FACS Calibur, Becton Dickinson). The cytometer was set to acquire 10 000 events. Two or three samples obtained from each animal were analyzed and the average recorded. EPCs were determined as double positive KDR+/CD34+ cells.
# To examine the effect of compounds and methods of the present invention on EPC levels in bone marrow, the following studies were performed. Male Swiss-Webster mice were administered various compounds of the present invention via oral gavage using a ball-tipped gavage needle. Animals treated by oral gavage received a 10 ml/kg volume of either 0.5% carboxymethyl cellulose (CMC) with 0.1% Polysorbate 80 (vehicle control) or various doses (10-100 mg/kg) of a compound of the present invention in 0.5% CMC with 0.1% Polysorbate 80. Animals were dosed once daily for 3 or 4 days. Six hours after the final dosing, bone marrow samples were taken from one tibia of each animal and suspended in buffer (PBS with 1% fetal bovine serum). Bone marrow suspensions were then filtered through nylon filters to remove stromal cells. Following filtration, the remaining cells were counted manually using a hemocytometer. Detection and quantitation of EPCs was performed by FACS analysis as described above in Example 1.
# [2] = system: colony-forming unit-endothelial cells (CFU-EC) from blood; assay: EPC colony forming assay (CFU-EC) ex vivo, blood of dosed mice; conditions: for Blood CFU-EC: blood 6 h after final dose, 12 days culture; for Blood CFU-EC Fold Increase Over Control: vs vehicle control
# Protocol: To examine the effect of compounds and methods of the present invention on increasing EPCs, wherein the EPCs are functional EPCs, i.e., EPCs that are able to differentiate into mature endothelial cells, the following studies were performed in which the frequency of endothelial colony-forming cells was evaluated ex vivo. In one series of experiments, male Swiss-Webster mice were administered various compounds of the present invention via oral gavage using a ball-tipped gavage needle. Animals treated by oral gavage received a 10 ml/kg volume of either 0.5% carboxymethyl cellulose (CMC) with 0.1% Polysorbate 80 (vehicle control) or various doses (10-100 mg/kg) of a compound of the present invention in 0.5% CMC with 0.1% Polysorbate 80. Animals were dosed once daily for 3 or 4 days. Six hours after the final dosing, 200 μl blood samples were collected for analysis of EPC function and differentiation using an EPC colony forming assay. EPC colony forming assays were carried out as previously described. (Murphy et al. (2007) Arterioscler Thromb Vasc Biol 27:936-942.) Briefly, mononuclear cells were isolated from whole blood samples by erythrocyte depletion using red blood cell lysis buffer (eBioscience) according to the manufacturer's instructions. The remaining cells (50,000 cells/well) were plated on fibronectin coated 24-well dishes (BD, BioSciences Discovery Labware) and incubated in endothelial growth media (EGM-2 media, Cambrex) for 12 days. At the end the incubation period, EPC colonies were counted.
# [3] = system: endothelial progenitor cells (EPCs), double positive KDR+/CD34+ cells, in blood; assay: Blood EPC levels by FACS after oral dosing in mice; conditions: for Blood EPCs / Percent Blood EPCs: blood 6 h after final dose; for Blood EPCs Fold Increase Over Control / Percent Blood EPCs Fold Increase Over Control: vs vehicle control
# Protocol: as §1
# [4] = system: colony-forming unit-endothelial cells (CFU-EC) from bone marrow; assay: EPC colony forming assay (CFU-EC) ex vivo, bone marrow of dosed mice; conditions: for Bone Marrow CFU-EC: tibia bone marrow 6 h after final dose, 12 days culture; for Bone Marrow CFU-EC Fold Increase Over Control: vs vehicle control
# Protocol: EPC colony forming assays were carried out as previously described. (Murphy et al. (2007) Arterioscler Thromb Vasc Biol 27:936-942.) Briefly, mononuclear cells were isolated from whole blood samples by erythrocyte depletion using red blood cell lysis buffer (eBioscience) according to the manufacturer's instructions. The remaining cells (50,000 cells/well) were plated on fibronectin coated 24-well dishes (BD, BioSciences Discovery Labware) and incubated in endothelial growth media (EGM-2 media, Cambrex) for 12 days. At the end the incubation period, EPC colonies were counted. In another series of experiments, male Swiss-Webster mice were administered various compounds of the present invention via oral gavage using a ball-tipped gavage needle. Animals treated by oral gavage received a 10 ml/kg volume of either 0.5% carboxymethyl cellulose (CMC) with 0.1% Polysorbate 80 (vehicle control) or various doses (10-100 mg/kg) of a compound of the present invention in 0.5% CMC with 0.1% Polysorbate 80. Animals were dosed once daily for 3 or 4 days. Six hours after the final dosing, bone marrow samples were taken from one tibia of each animal. Bone marrow samples were then analyzed for EPC function and differentiation using an EPC colony forming assay as described above.
# [5] = 60 mg/kg oral gavage once daily, 3 days
# [6] = 100 mg/kg oral gavage once daily, 4 days
# [7] = 20 mg/kg oral gavage once daily, 3 days
# [8] = 20 mg/kg oral gavage once daily, 4 days
# [9] = 60 mg/kg oral gavage once daily, 4 days
structure (smiles),measurement,setting,value
"COc1ccc(Oc2ccc3c(O)c(C(=O)NCC(=O)O)ncc3c2)cc1 [Compound A, {[4-Hydroxy-7-(4-methoxy-phenoxy)-isoquinoline-3-carbonyl]-amino}-acetic acid]",Percent Bone Marrow EPCs,[1]; [5],6.7 % gated cells
same,Percent Bone Marrow EPCs Fold Increase Over Control,"[1]; 60 mg/kg oral, 3 days",2.0 fold
same,Percent Bone Marrow EPCs,[1]; [6],14.1 % gated cells
same,Percent Bone Marrow EPCs Fold Increase Over Control,"[1]; 100 mg/kg oral, 4 days",1.8 fold
same,Blood CFU-EC,[2]; [5],"16.8 colonies/50,000 cells"
same,Blood CFU-EC Fold Increase Over Control,"[2]; 60 mg/kg oral, 3 days",8.4 fold
same,Blood CFU-EC,[2]; [6],"17.8 colonies/50,000 cells"
same,Blood CFU-EC Fold Increase Over Control,"[2]; 100 mg/kg oral, 4 days",3.63 fold
same,Blood EPCs,[3]; [5],24.7 cells/μl
same,Percent Blood EPCs,[3]; [5],2.6 % gated cells
same,Blood EPCs Fold Increase Over Control,"[3]; 60 mg/kg oral, 3 days",2.4 fold
same,Percent Blood EPCs Fold Increase Over Control,"[3]; 60 mg/kg oral, 3 days",2.0 fold
same,Blood EPCs,[3]; [6],309.0 cells/μl
same,Percent Blood EPCs,[3]; [6],3.2 % gated cells
same,Blood EPCs Fold Increase Over Control,"[3]; 100 mg/kg oral, 4 days",8.4 fold
same,Percent Blood EPCs Fold Increase Over Control,"[3]; 100 mg/kg oral, 4 days",4.7 fold
same,Bone Marrow CFU-EC,[4]; [5],"29.0 colonies/50,000 cells"
same,Bone Marrow CFU-EC Fold Increase Over Control,"[4]; 60 mg/kg oral, 3 days",3.0 fold
same,Bone Marrow CFU-EC,[4]; [6],"24.8 colonies/50,000 cells"
same,Bone Marrow CFU-EC Fold Increase Over Control,"[4]; 100 mg/kg oral, 4 days",3.2 fold
"Cc1cccc(C)c1Oc1ccc2c(C#N)nc(C(=O)NCC(=O)O)c(O)c2c1 [Compound C, {[1-Cyano-6-(2,6-dimethyl-phenoxy)-4-hydroxy-isoquinoline-3-carbonyl]-amino}-acetic acid]",Percent Bone Marrow EPCs,[1]; [7],2.2 % gated cells
same,Percent Bone Marrow EPCs,[1]; [8],0.6 % gated cells
same,Percent Bone Marrow EPCs Fold Increase Over Control,"[1]; 20 mg/kg oral, 3 days",2.2 fold
same,Percent Bone Marrow EPCs Fold Increase Over Control,"[1]; 20 mg/kg oral, 4 days",0.9 fold
same,Percent Bone Marrow EPCs,[1]; [5],3.2 % gated cells
same,Percent Bone Marrow EPCs,[1]; [9],0.9 % gated cells
same,Percent Bone Marrow EPCs Fold Increase Over Control,"[1]; 60 mg/kg oral, 3 days",3.2 fold
same,Percent Bone Marrow EPCs Fold Increase Over Control,"[1]; 60 mg/kg oral, 4 days",1.4 fold
same,Blood CFU-EC,[2]; [7],"7.7 colonies/50,000 cells"
same,Blood CFU-EC,[2]; [8],"5.6 colonies/50,000 cells"
same,Blood CFU-EC Fold Increase Over Control,"[2]; 20 mg/kg oral, 3 days",4.3 fold
same,Blood CFU-EC Fold Increase Over Control,"[2]; 20 mg/kg oral, 4 days",4.3 fold
same,Blood CFU-EC,[2]; [5],"7.4 colonies/50,000 cells"
same,Blood CFU-EC,[2]; [9],"6.6 colonies/50,000 cells"
same,Blood CFU-EC Fold Increase Over Control,"[2]; 60 mg/kg oral, 3 days",4.14 fold
same,Blood CFU-EC Fold Increase Over Control,"[2]; 60 mg/kg oral, 4 days",5.1 fold
same,Blood EPCs,[3]; [7],151.9 cells/μl
same,Percent Blood EPCs,[3]; [7],1.3 % gated cells
same,Blood EPCs,[3]; [8],125.9 cells/μl
same,Percent Blood EPCs,[3]; [8],0.7 % gated cells
same,Blood EPCs Fold Increase Over Control,"[3]; 20 mg/kg oral, 3 days",4.2 fold
same,Percent Blood EPCs Fold Increase Over Control,"[3]; 20 mg/kg oral, 3 days",1.8 fold
same,Blood EPCs Fold Increase Over Control,"[3]; 20 mg/kg oral, 4 days",2.5 fold
same,Percent Blood EPCs Fold Increase Over Control,"[3]; 20 mg/kg oral, 4 days",1.0 fold
same,Blood EPCs,[3]; [5],195.1 cells/μl
same,Percent Blood EPCs,[3]; [5],1.4 % gated cells
same,Blood EPCs,[3]; [9],240.0 cells/μl
same,Percent Blood EPCs,[3]; [9],1.0 % gated cells
same,Blood EPCs Fold Increase Over Control,"[3]; 60 mg/kg oral, 3 days",5.4 fold
same,Percent Blood EPCs Fold Increase Over Control,"[3]; 60 mg/kg oral, 3 days",1.9 fold
same,Blood EPCs Fold Increase Over Control,"[3]; 60 mg/kg oral, 4 days",4.7 fold
same,Percent Blood EPCs Fold Increase Over Control,"[3]; 60 mg/kg oral, 4 days",1.3 fold
same,Bone Marrow CFU-EC,[4]; [7],"25.7 colonies/50,000 cells"
same,Bone Marrow CFU-EC,[4]; [8],"26.0 colonies/50,000 cells"
same,Bone Marrow CFU-EC Fold Increase Over Control,"[4]; 20 mg/kg oral, 3 days",5.1 fold
same,Bone Marrow CFU-EC Fold Increase Over Control,"[4]; 20 mg/kg oral, 4 days",1.9 fold
same,Bone Marrow CFU-EC,[4]; [5],"28.0 colonies/50,000 cells"
same,Bone Marrow CFU-EC,[4]; [9],"61.0 colonies/50,000 cells"
same,Bone Marrow CFU-EC Fold Increase Over Control,"[4]; 60 mg/kg oral, 3 days",5.6 fold
same,Bone Marrow CFU-EC Fold Increase Over Control,"[4]; 60 mg/kg oral, 4 days",4.5 fold
"Cc1nc(C(=O)NCC(=O)O)c(O)c2ccc(Oc3ccccc3)cc12 [Compound B, [(4-Hydroxy-1-methyl-7-phenoxy-isoquinoline-3-carbonyl)-amino]-acetic acid]",Percent Bone Marrow EPCs,[1]; [5],9.0 % gated cells
same,Percent Bone Marrow EPCs Fold Increase Over Control,"[1]; 60 mg/kg oral, 3 days",2.7 fold
same,Percent Bone Marrow EPCs,[1]; [6],16.1 % gated cells
same,Percent Bone Marrow EPCs Fold Increase Over Control,"[1]; 100 mg/kg oral, 4 days",2.1 fold
same,Blood CFU-EC,[2]; [5],"12.4 colonies/50,000 cells"
same,Blood CFU-EC Fold Increase Over Control,"[2]; 60 mg/kg oral, 3 days",6.2 fold
same,Blood CFU-EC,[2]; [6],"9.3 colonies/50,000 cells"
same,Blood CFU-EC Fold Increase Over Control,"[2]; 100 mg/kg oral, 4 days",1.9 fold
same,Blood EPCs,[3]; [5],10.4 cells/μl
same,Percent Blood EPCs,[3]; [5],1.0 % gated cells
same,Blood EPCs Fold Increase Over Control,"[3]; 60 mg/kg oral, 3 days",1.0 fold
same,Percent Blood EPCs Fold Increase Over Control,"[3]; 60 mg/kg oral, 3 days",0.8 fold
same,Blood EPCs,[3]; [6],304.0 cells/μl
same,Percent Blood EPCs,[3]; [6],3.0 % gated cells
same,Blood EPCs Fold Increase Over Control,"[3]; 100 mg/kg oral, 4 days",8.2 fold
same,Percent Blood EPCs Fold Increase Over Control,"[3]; 100 mg/kg oral, 4 days",4.3 fold
same,Bone Marrow CFU-EC,[4]; [5],"22.0 colonies/50,000 cells"
same,Bone Marrow CFU-EC Fold Increase Over Control,"[4]; 60 mg/kg oral, 3 days",2.2 fold
same,Bone Marrow CFU-EC,[4]; [6],"22.4 colonies/50,000 cells"
same,Bone Marrow CFU-EC Fold Increase Over Control,"[4]; 100 mg/kg oral, 4 days",2.9 fold
